Measurements reported in article PMC9999251, “Pyrazole-based lamellarin O analogues: synthesis, biological evaluation and structure–activity relationships” (RSC Advances, 2023).

Key:
SW480 cells [1] = assay: Cell viability (MTT assay), SW480; type: cell-based; details: Homo sapiens, SW480, 96 h, 96 h treatment, read-out: GI50 ± SD SW480
Procedure: (§1) SW480 (human colon adenocarcinoma, adherent, epithelial, ATCC number: CCL-228), HT29 (human colon adenocarcinoma, adherent, epithelial, ATCC number: HTB-38), and HCT116 (human colon adenocarcinoma, adherent, epithelial-like, ATCC number: CCL-247) cells were maintained in RPMI-1640 medium (Sigma-Aldrich). Medium was supplemented with heat-inactivated FBS (Biowest), penicillin–streptomycin (Sigma; with 10 000 units penicillin and 10 mg streptomycin per mL in 0.9% NaCl) and L-glutamine (Sigma; 200 mM solution). Cell cultures were cultivated at 37 °C, maintaining a humidified atmosphere consisting of 5% CO2. Gibco™ trypsin–EDTA (0.05%) was used for cell passage.
(§2) To evaluate cell viability, SW480, HT29, and HCT116 cells were harvested from culture flasks by trypsinization and seeded into 96-well plates in 4000 cells per well, 3000 cells per well and 4000 cells per well densities, respectively. After 24 h preincubation period, cells were treated in triplicates with nine different doses of each compound (6a–o and 7a–c) for 96 h. After treatment compound solutions were replaced with MTT solution (MTT reagent in PBS, […]) diluted in a 6 : 1 ratio in non-supplemented RPMI-1640 medium and were additionally incubated for 2 h. After incubation, the medium was removed, and formazan product was dissolved in DMSO. Optical densities were measured at 550 nm with TECAN Infinite® M200 PRO microplate reader using a reference wavelength of 690 nm to correct unspecific absorption. The quantity of viable cells was normalized to untreated controls. The GI50 values were calculated from dose–response curves.

HCT116 cells [2] = assay: Viability staining via Calcein AM/Hoechst/PI, HCT116; type: cell-based, human; details: 20 µM, 24 h (Fig. S134 legend), method block: 4 μM, 96 h
Procedure: (§3) SW480, HT29 and HCT116 cells were seeded in 24-well plates in a cell density of 6000 cells per well and settled for 24 h. […] Cells were stained with propidium iodide (Sigma Aldrich, final concentration 2 μg mL^−1) and Hoechst 33342 (ThermoFisher Scientific, final concentration 0.5 μM) for 60 min and with Calcein AM (Merck, BioReagent, final concentration 50 μM) for 15 min, washed two times with PBS and finally covered with PBS for further analysis. Fluorescence microscopic evaluation was performed on a Evos FL Cell Imaging System (ThermoFisher Scientific).

SW480 cells [3] = assay: Viability staining via Calcein AM/Hoechst/PI, SW480; type: cell-based, human; details: 20 µM, 24 h (Fig. S135 legend), method block: 4 μM, 96 h
Procedure: as §3

[4] = Determination of HPLC–log P; type: physicochemical; details: reversed-phase HPLC on apHera C18 column; methanol / 0.01 M phosphate buffer pH 7.4; mean ± SD
Procedure: HPLC–log P values were determined using Shimadzu HPLC system equipped with apHera C18 column (10 × 6 mm, 5 μm, Supelco, Bellefonte, PA, USA). Each sample was dissolved in the internal standard mixture, consisting of triphenylene (99.9%, Carl Roth) and toluene (≥98%, Sigma-Aldrich). Analysis was performed at 1.5 mL min^−1 flow rate in the linear gradient where mobile phase consisted of methanol and 0.01 M phosphate buffer (pH 7.4). The HPLC–log P values were calculated from the measured retention times using previously published equation.[57]

HT29 cells [5] = assay: Cell viability (MTT assay), HT29; type: cell-based; details: Homo sapiens, HT-29, 96 h treatment, read-out: GI50 ± SD HT29
Procedure: as §1, §2

HT29 cells [6] = assay: Viability staining via Calcein AM/Hoechst/PI, HT29; type: cell-based, human; details: 20 µM, 24 h (Fig. S136 legend), method block: 4 μM, 96 h
Procedure: SW480, HT29 and HCT116 cells were seeded in 24-well plates in a cell density of 6000 cells per well and settled for 24 h. Afterwards cells were treated with 4 μM of test compounds 6a, c, f, h, m–o for 96 h. Cells were stained with propidium iodide (Sigma Aldrich, final concentration 2 μg mL^−1) and Hoechst 33342 (ThermoFisher Scientific, final concentration 0.5 μM) for 60 min and with Calcein AM (Merck, BioReagent, final concentration 50 μM) for 15 min, washed two times with PBS and finally covered with PBS for further analysis. Fluorescence microscopic evaluation was performed on a Evos FL Cell Imaging System (ThermoFisher Scientific).

HCT116 cells [7] = assay: Cell cycle distribution by flow cytometry (FACS); type: cell-based, human; details: HCT116, 72 h, lowest concentration of 5 μM; for G2/M phase: negative control 14.2 ± 1.1%; for G1 phase: negative control 49.5 ± 1.8%
Procedure: HCT116 cells (40 000 cells per well) were treated with the test compounds (6c, 6m) for 72 h in the concentration range of 5, 10 and 20 μM. After treatment cells were washed with DPBS (Sigma; modified, without calcium chloride and magnesium chloride) and trypsinized using a trypsin–EDTA solution (Gibco™, 0.05%). After additional washing with DPBS, cells were stained at +4 °C overnight using PI/HFS solution (50 μg mL^−1).[67] Samples were then analysed using Guava® easyCyte™ 8HT (Merck Millipore) flow cytometer with Guava Clean 3.1 software. The amount of debris was in the range of 9.2 ± 2.0%.

human serum albumin = target: T1, human serum albumin (Homo sapiens, UniProt P02768); assay: Plasma protein binding (PPB), HPLC on albumin-bound stationary phase; type: in vitro ADME; details: pH 7.4, binding to human serum albumin, HPLC method
T1 construct: purchased Chiral Technologies, DAICEL Group, Europe SAS, France CHIRALPAK®HAS (50 × 3 mm, 5 μm)
Procedure: Retention times of the analytes were measured with Shimadzu HPLC system on the CHIRALPAK®HAS stationary phase (50 × 3 mm, 5 μm, Chiral Technologies, DAICEL Group, Europe SAS, France). The mobile phase A consisted of 50 mM aqueous ammonium acetate buffer (pH 7.4) and phase B of 2-propanol according to Valko et al.[65] Analysis was performed at prolonged 1 mL min^−1 flow rate in the linear gradient. Retention capacity factors (k′) were calculated by using DMSO or a substance with 0% HAS binding for systems' dead time (Rt0). The system was calibrated by injecting the reference compounds: acetylsalicylic acid (CAS 69-72-7), betamethasone (CAS 378-44-9), budesonide (CAS 5133-22-3), carbamazepine (CAS 298-46-4), cimetidine (CAS 51481-61-9), ciprofloxacin (CAS 85721-33-1), indomethacin (CAS 53-86-1), isoniazid (CAS 54-85-3), metronidazole (CAS 443-48-1), nicardipine (CAS 55985-32-5), nizatidine (CAS 76963-41-2) and warfarin (CAS 81-81-2) obtained from Sigma-Aldrich, diclofenac (CAS 15307-86-5) from EMD Chemicals Inc., flumazenil (CAS 78755-81-4) from ABX and ketoprofen (CAS 22071-15-4) from LKT Labs. The logarithmic capacity factors of the references' Rt (log(k′)) on the HSA column were plotted against the %PPB values from literature. The slope and the intercept were used to convert the log(k′) of the compounds (6a, c, f, h, m–o) to %PPB using the regression equation.[66]

HCT116 cells [8] = assay: Cell viability (MTT assay), HCT116; type: cell-based; details: Homo sapiens, HCT-116, 96 h treatment, read-out: GI50 ± SD HCT116
Procedure: as §1, §2

SW620 = tested on: SW620; design: method as in PMID 24979269; details: SW620 colorectal cancer cells; read-out: IC50 cytotoxicity; cited from earlier work
SW620/Ad300 = tested on: SW620/Ad300; design: method as in PMID 24979269; details: SW620/Ad300 multi-drug resistant daughter cell line; read-out: IC50 cytotoxicity; cited from earlier work

T1 sequence (P02768 25-609): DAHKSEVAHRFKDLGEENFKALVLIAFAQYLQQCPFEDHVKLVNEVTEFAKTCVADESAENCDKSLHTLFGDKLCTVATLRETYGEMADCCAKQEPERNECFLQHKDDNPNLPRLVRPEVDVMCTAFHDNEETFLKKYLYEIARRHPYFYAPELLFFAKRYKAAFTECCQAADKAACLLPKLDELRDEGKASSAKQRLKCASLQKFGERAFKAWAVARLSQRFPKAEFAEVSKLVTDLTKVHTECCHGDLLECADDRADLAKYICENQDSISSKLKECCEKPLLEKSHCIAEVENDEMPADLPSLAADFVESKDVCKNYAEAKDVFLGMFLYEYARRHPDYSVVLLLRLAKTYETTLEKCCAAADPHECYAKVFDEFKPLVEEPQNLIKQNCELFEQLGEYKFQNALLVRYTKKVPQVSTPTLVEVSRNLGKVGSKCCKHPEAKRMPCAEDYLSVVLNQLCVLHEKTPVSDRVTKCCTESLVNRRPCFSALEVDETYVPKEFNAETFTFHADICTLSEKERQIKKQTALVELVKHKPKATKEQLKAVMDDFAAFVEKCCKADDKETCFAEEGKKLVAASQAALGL

Row | GI50 (SW480 cells [1]) [µM] | chromatographic logP [4] | GI50 (HT29 cells [5]) [µM] | melting point [°C] | fraction unbound (human serum albumin) | GI50 (HCT116 cells [8]) [µM] | SMILES | PI staining (necrosis) (HCT116 cells [2]) | PI staining (necrosis) (SW480 cells [3]) | PI staining (necrosis) (HT29 cells [6]) | G2/M phase (HCT116 cells [7]) [%] | G1 phase (HCT116 cells [7]) [%] | IC50 (SW620) [µM] | IC50 (SW620/Ad300) [µM]
1 | 5.52 ± 3.72 | 4.453 ± 0.005 | 4.98 ± 2.62 | 114 to 115 | 0.04 | 1.96 ± 0.266 | CCOC(=O)c1c(-c2ccccc2)c(-c2ccccc2)nn1CC(=O)c1ccc(F)cc1 [Compound 6c, Ethyl 1-[2-(4-fluorophenyl)-2-oxoethyl]-3,4-diphenyl-1H-pyrazole-5-carboxylate] | no involvement of necrosis | no involvement of necrosis | no involvement of necrosis | 25.0 ± 0.5 | 63.2 ± 1.4 | – | –
2 | 1.44 ± 0.173 | 4.545 ± 0.006 | 2.69 ± 0.11 | 104 to 105 | 0.034 | 1.46 ± 0.247 | CCOC(=O)c1c(-c2ccccc2)c(-c2ccc(F)cc2)nn1CC(=O)c1ccc(F)cc1 [Compound 6m, Ethyl 3-(4-fluorophenyl)-1-[2-(4-fluorophenyl)-2-oxoethyl]-4-phenyl-1H-pyrazole-5-carboxylate] | no involvement of necrosis | no involvement of necrosis | no involvement of necrosis | 26.9 ± 0.8 | 61.0 ± 1.8 | – | –
3 | – | – | – | – | – | – | COC(=O)c1c(-c2ccc(O)cc2)c(-c2ccc(O)cc2)cn1CC(=O)c1ccc(OC)cc1 [Lamellarin O] | – | – | – | – | – | 20 | 22.3
